Bounds are passed on as bounds.

This assay concerns RSV A2. Description: RSV antiviral cytopathic effect (CPE) assay, MTT readout. Conditions: human respiratory syncytial virus, HEp-2, 120 h; HEp2 cells infected with RSV A2, moi ~0.01, 5 days; compounds of Table 2; read-out: Activity Range (EC50, RSV A2 antiviral). The format is cell-based. The procedure: Biological Data Method P: RSV Antiviral Assay Protocol
Compounds of the invention were tested for their antiviral activity against respiratory syncytial virus. Cytopathic effect (CPE) assays were performed essentially as described in the literature (see for example Watanabe et al, 1994, J. Virological Methods, 48:257). Serial dilutions of the test compounds were made in 96 well plates. HEp2 cells (1.0×10^4 cells/well) were infected with RSV at a low multiplicity of infection (e.g. RSV A2 at an moi of ˜0.01) and added to plates to assess antiviral activity. Uninfected HEp2 cells were used to assess compound cytotoxicity. Assays were incubated for 5 days at 37° C. in a 5% CO2 atmosphere. The extent of CPE was determined via metabolism of the vital dye 3-(4, 5-dimethylthiaxol-2-yl)-2,5-diphenyltetrazolium bromide (MTT). MTT (1 mg/ml) was added to each well and plates incubated for 2 hours incubation at 37° C. Wells were aspirated, iso-propanol (200 μL) was added and absorbance values read at 540/690 nm. Compound concentrations that inhibited CPE by 50% (EC50) and developed cytotoxicity (CC50) were calculated using non-linear regression analysis.
(Protection from cytopathic effect is a common read-out in antiviral testing.)
For `O=C(c1cccnc1)N1CCN2C(=O)c3ccc(F)cc3CC12c1ccc(Cl)cc1` (stereo not drawn) [Compound 1-083], the concentration for a half-maximal effect (EC50) fell in the range of 0.25 to 1 µM. Consider `O=C(Cc1ccccn1)N1CCN2C(=O)c3ccccc3CC12c1ccc(Cl)cc1` (stereo not drawn) [Compound 1-066], for which the EC50 lay in the range of 1 to 5 µM. On to `O=C(c1ccc(F)cc1)N1CCN2C(=O)c3ccccc3CC12c1ccc(Cl)cc1` (stereo not drawn) [Compound 1-005], for which the EC50 was above 5 µM.

In the case of `O=C(c1ccc(F)cc1)N1CCN2C(=O)c3ccccc3CC12c1ccccc1` (stereo not drawn) [Compound 1-001], the concentration for a half-maximal effect (EC50) lay in the range of 0.25 to 1 µM. For `O=C(c1ccoc1)N1CCN2C(=O)c3cccnc3CC12c1ccc(Cl)cc1` (stereo not drawn) [Compound 1-043] the value was below 0.25 µM; for `O=C(c1ccc(F)cc1)N1CCN2C(=O)c3cccc(F)c3CC12c1ccc(Cl)cc1` (stereo not drawn) [Compound 1-073], 0.25 to 1 µM. In the case of `O=C(c1ccoc1)N1CCN2C(=O)c3ccccc3CC12c1ccc(Cl)cc1` (stereo not drawn) [Compound 1-006], the EC50 was below 0.25 µM. The value for `O=C(CNS(=O)(=O)c1ccc(F)cc1)N1CCN2C(=O)c3ccccc3CC12c1ccc(Cl)cc1` (stereo not drawn) [Compound 1-079, N-{2-[10a-(4-Chlorophenyl)-5-oxo-2,3,10,10a-tetrahydro-5H-imidazo[1,2-b]isoquinolin-1-yl]-2-oxoethyl}-4-fluorobenzenesulfonamide] was 0.25 to 1 µM; that for `Cn1cc(C(=O)N2CCN3C(=O)c4cccc(F)c4CC23c2ccc(Cl)cc2)c(C(F)(F)F)n1` (stereo not drawn) [Compound 1-087] was below 0.25 µM. For `O=C(c1cccnc1)N1CCN2C(=O)c3ccccc3CC12c1ccccc1` (stereo not drawn) [Compound 1-003] the value was 0.25 to 1 µM.

Turning to `CCC(=O)N1CCN2C(=O)c3ccccc3CC12c1ccc(Cl)cc1` (stereo not drawn) [Compound 1-077], the half-maximal effective concentration (EC50) fell in the range of 1 to 5 µM. As for `O=C1c2ccccc2CC2(c3ccc(Cl)cc3)N1CCN2C(=O)c1sccc1Cl` (stereo not drawn) [Compound 1-019], the half-maximal effective concentration (EC50) is 0.25 to 1 µM. Turning to `Cn1cc(C(=O)N2CCN3C(=O)c4ccccc4CC32c2ccc(Cl)cc2)c(C(F)(F)F)n1` (stereo not drawn) [Compound 1-029], the 50% effective concentration (EC50) was 0.25 to 1 µM. As for `O=C(c1ccno1)N1CCN2C(=O)c3ccccc3CC12c1ccc(Cl)cc1` (stereo not drawn) [Compound 1-025], the EC50 fell in the range of 1 to 5 µM. With `O=C(c1csc(-c2cccnc2)n1)N1CCN2C(=O)c3ccccc3CC12c1ccccc1` (stereo not drawn) [Compound 1-002], the 50% effective concentration (EC50) is 0.25 to 1 µM.

Turning to `O=C(c1ccc(F)cc1)N1CCN2C(=O)c3ncccc3CC12c1ccc(Cl)cc1` (stereo not drawn) [Compound 1-109], the concentration for a half-maximal effect (EC50) fell in the range of 1 to 5 µM. Consider `O=C(NCCc1ccccc1)N1CCN2C(=O)c3cccnc3CC12c1ccc(Cl)cc1` (stereo not drawn) [Compound 1-015], for which the half-maximal effective concentration (EC50) was 0.25 to 1 µM.

For `COc1ccc(CC(=O)N2CCN3C(=O)c4ccccc4CC23c2ccc(Cl)cc2)cc1` (stereo not drawn) [Compound 1-069], the 50% effective concentration (EC50) was in the range of 0.25 to 1 µM. For `O=C(c1ccoc1)N1CCN2C(=O)c3ccncc3CC12c1ccc(Cl)cc1` (stereo not drawn) [Compound 1-010] the value was 0.25 to 1 µM; for `O=C(c1cccnc1)N1CCN2C(=O)c3cccnc3CC12c1ccc(Cl)cc1` (stereo not drawn) [Compound 1-014], 1 to 5 µM; for `O=C(c1ccc(F)nc1)N1CCN2C(=O)c3ccccc3CC12c1ccc(Cl)cc1` (stereo not drawn) [Compound 1-007], 1 to 5 µM.

Regarding `O=C(c1ccoc1)N1CCN2C(=O)c3cccc(F)c3CC12c1ccc(Cl)cc1` (stereo not drawn) [Compound 1-071], the EC50 was below 0.25 µM. The value for `O=C(c1cccs1)N1CCN2C(=O)c3cccnc3CC12c1ccc(Cl)cc1` (stereo not drawn) [Compound 1-101] was below 0.25 µM. Consider `O=C(c1cccnc1)N1CCN2C(=O)c3ccccc3CC12c1ccc(Cl)cc1` (stereo not drawn) [Compound 1-008, 10a-(4-Chlorophenyl)-1-(pyridine-3-carbonyl)-2,3,10,10a-tetrahydro-1H-imidazo[1,2-b]isoquinolin-5-one], for which the EC50 was 1 to 5 µM.

Usually EC50 stands for the concentration at which the effect is half-maximal.

(Values after patent US9675694B2, “Polycyclic agents for the treatment of respiratory syncytial virus infections” (Biota Scientific Management Pty Ltd., priority 2006, dated 2017).)
